Assay results from patent publication US9403834B2, “Pyrrolotriazines as potassium ion channel inhibitors” (BRISTOL-MYERS SQUIBB COMPANY, priority 2013, dated 2016).

Each compound was assayed against T1, human Kv 1.5 (Homo sapiens, UniProt P22460) (assay: block of IKur current in patch clamped L-929 cells expressing human Kv1.5). Details: 0.3 μM; patch clamped mammalian L-929 cells stably expressing IKur protein.
T1 construct: expressed in transfected cells; host or cells: mammalian L-929 cells (mouse fibroblasts)
T1 sequence (P22460 whole entry): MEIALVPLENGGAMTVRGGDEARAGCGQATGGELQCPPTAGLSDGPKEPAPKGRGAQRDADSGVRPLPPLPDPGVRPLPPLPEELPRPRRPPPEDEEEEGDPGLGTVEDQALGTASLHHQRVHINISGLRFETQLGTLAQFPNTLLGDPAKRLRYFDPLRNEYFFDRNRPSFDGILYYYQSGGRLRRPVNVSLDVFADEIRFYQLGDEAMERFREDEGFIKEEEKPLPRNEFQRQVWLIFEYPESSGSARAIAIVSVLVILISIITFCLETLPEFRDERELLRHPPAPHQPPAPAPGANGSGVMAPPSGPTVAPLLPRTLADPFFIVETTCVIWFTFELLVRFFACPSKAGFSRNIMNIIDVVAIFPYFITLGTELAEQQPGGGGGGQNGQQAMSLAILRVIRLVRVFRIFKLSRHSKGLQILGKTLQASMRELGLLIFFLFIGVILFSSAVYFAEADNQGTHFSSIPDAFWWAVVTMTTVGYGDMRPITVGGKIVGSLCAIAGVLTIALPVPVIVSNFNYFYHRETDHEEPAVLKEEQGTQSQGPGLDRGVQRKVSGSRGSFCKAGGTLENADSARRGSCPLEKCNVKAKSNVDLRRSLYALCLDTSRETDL
Assay type: cell-based
From the text: Assays to determine the degree of activity of a compound as an IKur inhibitor are well known in the art and are described in references such as J. Gen. Physiol., 101(4):513-543 (April 1993), and Br. J. Pharmacol., 115(2):267-274 (May 1995).
1. Synders, D. J. et al., “A rapidly activating and slowly inactivating potassium channel cloned from human heart: functional analysis after stable mammalian cell culture expression”, J. Gen. Physiol., 101:513-543 (1993).
2. Zhou, Z. et al., “Block of HERG potassium channels by the antihistamine astemizole and its metabolites desmethylastemizole and norastemizole”, J. Cardiovasc. Electrophysiol., 10(6):836-843 (1999).
In the case of CC(Nc1nnc(-c2cncc(S(N)(=O)=O)c2)n2ccc(-c3ccccc3)c12)c1ccccn1 (single isomer, unassigned) [Example 5, 5-(8-phenyl-1-(1-(pyridin-2-yl)ethylamino)pyrrolo[1,2-d][1,2,4]triazin-4-yl)pyridine-3-sulfonamide], the “Percentage inhibition of Kv1.5 in L-929 cells at 0.3 μM” value is reported as 88%.

Same assay, conditions: L929, 0.3 μM; patch clamped mammalian L-929 cells stably expressing IKur protein; read-out: Percentage inhibition of Kv1.5 in L-929 cells at 0.3 μM
In the case of CC(Nc1nnc(-c2cncc(S(N)(=O)=O)c2)n2ccc(-c3ccccc3)c12)c1ccccn1 (single isomer, unassigned) [Example 6, 5-(8-phenyl-1-(1-(pyridin-2-yl)ethylamino)pyrrolo[1,2-d][1,2,4]triazin-4-yl)pyridine-3-sulfonamide], the inhibition at 0.3 µM is reported as 92%.
With NS(=O)(=O)c1cncc(-c2nnc(NCc3ccccc3)c3c(-c4ccccc4)ccn23)c1 [Example 1, 5-(1-(Benzylamino)-8-phenylpyrrolo[1,2-d][1,2,4]triazin-4-yl)pyridine-3-sulfonamide] the inhibition at 0.3 µM was 89%.
Compound NS(=O)(=O)c1cncc(-c2nnc(Nc3cccc(F)c3)c3c(-c4ccccc4)ccn23)c1 [Example 2, 5-(1-(3-Fluorophenylamino)-8-phenylpyrrolo[1,2-d][1,2,4]triazin-4-yl)pyridine-3-sulfonamide] has an inhibition at 0.3 µM of 91%.
NS(=O)(=O)c1cc(-c2nnc(NCc3ccccn3)c3c(-c4ccccc4)ccn23)cnc1C(F)F [Example 3, 2-(Difluoromethyl)-5-(8-phenyl-1-(pyridin-2-ylmethylamino)pyrrolo[1,2-d][1,2,4]triazin-4-yl)pyridine-3-sulfonamide] gave an inhibition at 0.3 µM of 95%.
NS(=O)(=O)c1cncc(-c2nnc(NCc3ccccn3)c3c(-c4ccccc4)ccn23)c1 [Example 4, 5-(8-phenyl-1-(pyridin-2-ylmethylamino)pyrrolo[1,2-d][1,2,4]triazin-4-yl)pyridine-3-sulfonamide] was tested, and the inhibition at 0.3 µM was 86%.
NS(=O)(=O)c1cncc(-c2nnc(NCc3ncccc3F)c3c(-c4ccccc4)ccn23)c1 [Example 7, 5-(1-(((3-fluoropyridin-2-yl)methyl)amino)-8-phenylpyrrolo[1,2-d][1,2,4]triazin-4-yl)pyridine-3-sulfonamide] was tested, and the inhibition at 0.3 µM was 98%.
NS(=O)(=O)c1cncc(-c2nnc(NCc3ccccc3F)c3c(-c4ccccc4)ccn23)c1 [Example 8, 5-(1-(2-fluorobenzylamino)-8-phenylpyrrolo[1,2-d][1,2,4]triazin-4-yl)pyridine-3-sulfonamide] gave an inhibition at 0.3 µM of 93%.
Work on NS(=O)(=O)c1cncc(-c2nnc(NCc3c(F)cccc3F)c3c(-c4ccccc4)ccn23)c1 [Example 9, 5-(1-(2,6-difluorobenzylamino)-8-phenylpyrrolo[1,2-d][1,2,4]triazin-4-yl)pyridine-3-sulfonamide] yielded an inhibition at 0.3 µM of 92%.
